Experimental data published in patent US20180064829A1, “FLUORESCENT BISPHOSPHONATE ANALOGS” (University of Southern California, priority 2015, published 2018).

Legend:
[1] = pH 7.0, 0.1M phosphate buffer; assumed the same as the corresponding fluorescent dye; cited from earlier work
J774.2 macrophages = assay: J774.2 cell viability assay (AlamarBlue); format: cell-based, mouse; settings: J774.2 macrophages, 10, 100 or 500 μM, 48 h; FIG. 5D-F
Description: To determine the effect of fluorescent BP analogues on cell viability, J774.2 mouse macrophages were plated at 2×10^5 cells/mL in 96-well plates and left to adhere overnight. Cells were then treated with 10, 100 or 500 μM of fluorescent analogues of RIS, dRIS, and ZOL, the respective native BP, or vehicle, for 48 h. At the end of the incubation period, AlamarBlue reagent was added to each well and incubation continued for a further 3 h. Fluorescence was detected on a plate reader, and expressed as percent of vehicle control. Results are shown as mean±SD of ≧2 independent experiments, performed at least in duplicate.

[2] = UV-VIS absorption and fluorescence emission spectra; format: physicochemical; settings: 0.1M phosphate buffer (1x PBS for 7d5); ± 1 nm error
Description: All labeled samples were dissolved in water and diluted with 0.1 M phosphate buffer or 1×PBS (for 7d5). Assuming that the labeled bisphosphonates have the same extinction coefficient (E) as the carboxylic acid of the free fluorescent label, the final concentrations for all labeled products were calculated from UV-VIS absorption spectra at λ=493 nm (ε=73000 M^−1 cm^−1 at pH 7.2) for FAM conjugates (7a1-7a3, 7b1, 7c1, 7d1-7d2, 7e1-7e2, 7f1-7f2), λ=567.5 nm (ε=114850 M^−1cm^−1 at pH 7.5) for RhR-X conjugates (7a4, 7b2, 7c2), λ=580 nm (c=72000 M^−1cm^−1 at pH 8.0) for ROX conjugates (7a5, 7b3), λ=648 nm (ε=240000 M^−1cm^−1 at pH 7.2) for AF647 conjugates (7a6, 7b4, 7d3), λ=774 nm (ε=240000 M^−1cm^−1 at pH 7.4) for 800CW conjugates (7d4), λ=644 nm (ε=271000 M^−1cm^−1 at pH 7.4, 1×PBS) for Sulfo-Cy5 conjugates (7d5).
Emission spectra for FAM and RhR-X conjugates were recorded using an excitation wavelength of 490 nm or 520 nm, respectively. Emission spectra for AF647 conjugates and Sulfo-Cy5 conjugates were recorded using an excitation wavelength of 600 nm. Emission spectra of 5(6)-ROX conjugates were recorded using an excitation wavelength of 575 nm. Emission spectra of IRDye CW800 conjugate was recorded using an excitation wavelength of 750 nm. The set-up of excitation slit, emission slit, integration time and increment were determined to get optimal spectra for each compound respectively, depending on the sample concentration and spectrometer used.

[3] = Hydroxyapatite (HAP) column chromatography binding assay; settings: pH 6.8, phosphate gradient 1 to 1000 mM; FIG. 3
Description: The fast performance liquid chromatography (FPLC) system consisted of a Waters 650E advanced protein purification system (Millipore Corp., Waters chromatography division, Milford, Mass.), a 600E system controller and a 484 tunable absorbance detector for UV absorbance assessment. Ceramic hydroxyapatite [HAP, […], Macro-Prep® Ceramic Hydroxyapatite Type II 20 μm 100 g, Bio-Rad Laboratories, Inc. Hercules, Calif.] was equilibrated with 1 mM phosphate buffer (pH 6.8) and packed in a 0.66 cm (diameter)×6.5 cm (length) glass column (Omnifit, Bio-chem Valve™ inc., Cambridge, U.K.), which was attached to the Waters 650E advanced protein purification system. Each sample was prepared in 1 mM potassium phosphate buffer, and 100 μL of 1 mM (0.1 μmol) sample was injected into the FPLC system. As a consequence, the compounds were absorbed and subsequently eluted at a flow rate of 2 ml/min by using a linear concentration gradient of phosphate from 1 to 1000 mM at pH 6.8. Fractions of each sample were collected in 80 tubes using an automated fraction collector (Gilson, France) and then used for subsequent ultraviolet (SPECTRAmax PLUS 384, Molecular Devices, CA) or fluorescence spectrometry detection (WALLAC VICTOR™, 1420 MULTILABEL COUNTER, Perkin Elmer, USA). […] The elution profile for each sample was determined in triplicate for statistical analysis (Prism, GraphPad Software, USA). […]

[4] = system: unprenylated Rap1A (uRap1A); assay: Prenylation assay: Western blot for unprenylated Rap1A in J774.2 macrophages; format: cell-based, mouse; settings: 10 or 100 μM, 24 h, FIG. 5A-C
Description: To determine the effect of fluorescent BP probes on protein prenylation, J774.2 mouse macrophages were plated out at 2×10^5 cells/mL in 24-well plates and left to adhere overnight. Cells were then treated with 10 or 100 μM of fluorescent analogues of RIS, dRIS, and ZOL, the respective native BP, or vehicle, for 24 h. Cells were lysed in radioimmunoprecipitation buffer, and proteins were separated by sodium dodecyl sulfate polyacrylamide gel electrophoresis and transferred to polyvinyl difluoride membranes by western blotting. Membranes were then incubated with antibodies to the unprenylated form of Rap1A (uRap1A) and the housekeeping protein β-actin, which were detected by incubation with fluorescently-labeled secondary antibodies and scanning of membranes on a LI-COR Infrared Imager. Results shown are representative of 2 independent experiments. The ratio between abundance of unprenylated RaplA and β-actin is indicated for each sample below the blots in FIG. 5.

## CC1(C)C(C=CC=CC=C2N(CCCS(=O)(=O)O)c3ccc(S(=O)(=O)O)cc3C2(C)CCCCCC(=O)NCC(O)C[n+]2cccc(CC(O)(P(=O)(O)O)P(=O)(O)O)c2)=[N+](CCCS(=O)(=O)O)c2ccc(S(=O)(=O)O)cc21 (centres unmarked) [AF647-RIS, 2-(5-(3-(6-((2-hydroxy-3-(3-(2-hydroxy-2,2-diphosphonoethyl)pyridin-1-ium-1-yl)propyl)amino)-6-oxohexyl)-3-methyl-5-sulfo-1-(3-sulfopropyl)indolin-2-ylidene)penta-1,3-dien-1-yl)-3,3-dimethyl-5-sulfo-1-(3-sulfopropyl)-3H-indol-1-ium]
[1]
  Extinction coefficient: 240,000 (pH 7.0) M^−1cm^−1
J774.2 macrophages
  viable cell number: modest decreases in viable cell number at high concentrations
[2]
  Maximum absorption wavelength (λmax (abs), nm): 648 nm
  Maximum emission wavelength (λmax (em), nm): 666 nm
[3]
  HAP binding affinity (retention time on HAP column, normalized to RIS): largest relative decrease of HAP affinity compared to other fluorescent RIS conjugates, but still retains strong absolute binding affinity
[4]
  accumulation of unprenylated Rap1A (anti-prenylation activity): did not show accumulation of unprenylated Rap1A

## CC1(C)C(/C=C/C2=C(Oc3ccc(S(=O)(=O)O)cc3)C(=C/C=C3/N(CCCCS(=O)(=O)[O-])c4ccc(S(=O)(=O)[O-])cc4C3(C)C)/CCC2)=[N+](CCCCCC(=O)NCC(O)C[n+]2ccn(CC(O)(P(=O)(O)O)P(=O)(O)O)c2)c2ccc(S(=O)(=O)O)cc21 (centres unmarked) [Compound 800CW-ZOL, (E)-2-((E)-2-(3-((E)-2-(1-(6-((2-hydroxy-3-(1-(2-hydroxy-2,2-diphosphonoethyl)-1H-imidazol-3-ium-3-yl)propyl)amino)-6-oxohexyl)-3,3-dimethyl-5-sulfo-3H-indol-1-ium-2-yl)vinyl)-2-(4-sulfophenoxy)cyclohex-2-en-1-ylidene)ethylidene)-3,3-dimethyl-1-(4-sulfonatobutyl)indoline-5-sulfonate]
[1]
  Extinction coefficient: 240,000 (pH 7.0) M^−1cm^−1
J774.2 macrophages
  viable cell number: modest decreases in viable cell number at high concentrations
[2]
  Maximum absorption wavelength (λmax (abs), nm): 774 nm
  Maximum emission wavelength (λmax (em), nm): 789 nm
[4]
  accumulation of unprenylated Rap1A (anti-prenylation activity): did not show accumulation of unprenylated Rap1A
